The source of these data is US12629415B2, “Vaccine adjuvants” (THE PROVOST, FELLOWS, FOUNDATION SCHOLARS, AND THE OTHER …, priority 2018, dated 2026).

For assay [1], the system named is mononuclear cells from cord blood, children's blood or adult blood. Description: HEK-Blue IFNα/β and TNFα assays on mononuclear cells of cord blood, children and adults. It is filed as cell-based, human. Particulars: transfection 24 h, 4-24 months, 2-5 years, 6-11 years. The text has this: Umbilical cord blood samples were obtained from term births following normal pregnancy, labour and delivery at National Maternity Hospital (NMH), Holles St, Dublin 2. […] Venous blood from infants, children and adolescents of various ages was collected during elective surgical procedures where no indication of infection was present (such as hydrocele repair, umbilical hernia repair, onychocryptosis, orchipexy repair) in Our Lady's Children's Hospital Crumlin (OLCHC), Dublin 12. […] Volumes drawn were age and weight dependent, according to standard, approved guidelines. Ethics approval was obtained from the Ethics Committees of NMH and OLCHC and informed consent was obtained from each subject or their parent/guardian. Adult blood samples were from healthy adults, supplied by the Irish Blood Transfusion Service. • Poly(I:C), Poly(dA:dT) and cGAMP were obtained from Invivogen • Poly (dA:dT) is a repetitive synthetic double-stranded DNA sequence of poly(dA-dT)-poly(dT-dA) http://www.invivopen.com/poly-dadt-naked • Poly (I:C) comprises long strands of inosine poly(I) homopolymer annealed to strands of cytidine poly(C) homopolymer http://www.invivogen.com/polyic-hmw. • cGAMP is cyclic [G(2′,5′)pA(3′,5′)p]; Formula: […], 2Na Methodology
Isolation of mononuclear cells and monocytes—Primary PBMCs or CBMCs were isolated from healthy human blood or cord blood. Monocytes were isolated by negative selection using Monocyte Isolation Kit II (Miltenyi). Monocyte purity was assessed using CD14 staining and was routinely 85-95%. Cells were cultured at 37° C., 5% CO2, 95% air in RPMI-1640, with stable 2.5 mM L-glutamine and 0.5 mM sodium pyruvate with 10% FBS (all from Sigma-Aldrich).
Poly(I:C) (5 μg/ml) (Invivogen), Poly(dA:dT) (5 μg/ml) (Sigma-Aldrich), 2′3′ cGAMP (10 μg/ml), 5′ triphosphate double stranded RNA (5′ ppp dsRNA) (2.5 μg/ml) and HSV-60 (2 μg/ml) (all from Invivogen) were transfected into PBMCs or CBMCs using TransIT-X2 (Mirus).
Measurement of cytokines—HEK Blue TNFα/IFNα/β Assays were performed as per the manufacturer's (Invivogen) instructions using Quanti-Blue Detection Reagent. SEAP levels were determined using a spectrophotometer plate reader at 630 nm. IFNα (3425-1H-6, Mabtech) and IP-10 (DY266, R&D Systems) were detected by sandwich ELISA. IFNα ELISA used pan specific IFNα antibodies, which allows detection of IFNα subtypes 1/13, 2, 4, 5, 6, 7, 8, 10, 14, 16 and 17. BioLegend LEGENDplex™ Human Inflammation Panel (13-plex) was carried out as per manufacturer's (Biolegend) instructions to determine levels of IFNγ, IL-10, IL-12p70 and IL-23. A BD LSR Fortessa cell analyser was used to acquire samples and BioLegend LEGENDplex™ software was used for analysis.

The subject of assay [2] is bovine PBMCs. The experiment in a line: Bovine IFN-γ ELISA on stimulated PBMCs. It is filed as cell-based, cattle. Conditions: 72 hours; for IFN-γ secretion by ConA stimulated PBMCs from 2 month old calves: ConA 1 μg/ml, polydA:dT 1 μg/ml; for IFN-γ secretion by ConA stimulated bovine PBMCs: calves <1 year old, ConA 1 μg/ml with or without LPS 100 pg/ml; for IFN-γ secretion by PBMCs from neonatal calves, time course: same 5 calves from 1 to 5 months of age, ConA with or without LPS. How it is done: (§1) Bovine peripheral blood mononuclear cells were isolated from whole blood samples collected in 9m1 vacutainers containing Heparin anticoagulant. PBMCs were spun and separated using leucosep tubes (Cruinn) and a density gradient histopaque 1077 (Sigma-Aldrich) at a speed of 1200 g for 20 minutes. Red blood cell contamination was eliminated using sterile 0.25% sodium chloride (Baxter) as a lysis buffer. The cells were subsequently washed twice in PBS at a speed of 600 g for 10 minutes to remove impurities.
(§2) Cells were counted using a haemocytometer, microscope and trypan blue (Sigma Aldrich) and seeded at appropriate densities in tissue culture plates (Cruinn) containing media. The cells were incubated at 37° C. at 5% CO2 treated within hours of plating to avoid unwanted cell death.
When analysing the effects of IL-1β on T cell activation, cells were pre-treated with 250 μg/ml of IL-1 receptor antagonist (IL-1Ra) 40 minutes before stimulation with IL-1β (25 ng/ml). Cells were subsequently stimulated with concanavalin A (1 μg/ml) 1 hour after addition of IL-1β. Similarly, when analysing the effects of polydA:dT on T cell activation, cells were stimulated with polydA:dT (1 μg/ml) 1 hour before ConA treatment (1 μg/ml). LPS (100 pg/ml) primed cells were incubated with YVAD-FMK (10 μm), an inhibitor specific for caspase-1. After 40 minutes, the cells were stimulated with alum (50 μg/ml) for 24 hours and supernatants were then harvested and analysed by ELISA for IL-1β
(§3) Capture antibodies (50 μl/well), diluted in the appropriate buffers, were dispensed into the wells of high binding plates (Greiner Bio-One) and incubated overnight at room temperature or 4° C. For analysis of IL-17, the ELISA plates were pre-coated with capture antibody by the manufacturing before delivery. The wells were washed with PBS/Tween 3 times and the plates were then incubated with 150 μl of blocking buffer for 1 hour at room temperature. The plates were washed again before supernatant (neat or diluted) and recombinant standards were added for 1 hour at room temperature. Following this, the plates were washed and 50 μl of detection antibody was added to the wells for a period of 1 or 2 hours at room temperature. After washing, 50 μl diluted streptavidin-HRP was added to the plate for between 30 minutes and 1 hour. After the final wash, 50 μl of 3,3′-, 5,5′-Tetramethylbenzidine (TMB) substrate was added and the plates were incubated in the dark. The reaction was stopped by addition of 1M sulphuric acid and the absorbance readings were measured at 450 nm using a microtitre plate reader. The cytokine concentrations were calculated using a linear regression standard curve from recombinant cytokines of known concentration. Skanit™ software was used to estimate values.

For assay [3], the system named is bovine PBMCs. The experiment in a line: Bovine IL-1β ELISA on stimulated PBMCs. It is filed as cell-based, cattle. Particulars: for IL-1β secretion by bovine PBMCs in the absence of LPS priming: polydA:dT 5, 2 or 1 μg/ml or alum 50 μg/ml. As for the experimental part:
as §1, §2
[…] This concentration was selected after testing effects of a range of different LPS concentrations ranging from 1 pg/ml-1 μg/ml. […] Similar to LPS, adjuvant concentrations were selected after testing multiple different doses. After stimulation, the cells were cultured for an additional 24 hours. Supernatants were harvested and stored at −20° C. for further analysis.
as §3
On the technique in general: ELISA stands for enzyme-linked immunosorbent assay.

“Also recorded” adds a separate entry of the source.

Turning to “poly(deoxyadenylic-thymidylic) acid [Poly(dA:dT)]”, in assay [1], the “TNFα production across age groups” value is “maintenance of cord blood responsiveness to CNA was also observed for both Poly(I:C) and Poly(dA:dT)-induced TNFα production to the age of 24 months”. Also, the “production of type I IFN across age groups” value in assay [1] is “maintained throughout childhood; also recorded: maintained across all age groups”. In addition, the “IFN-γ secretion by ConA stimulated PBMCs from 2 month old calves” value is reported as “drives enhanced IFN-γ secretion in calves aged <1 year old” in the assay with bovine PBMCs [2] (listed as PolydA:dT) and “strongly enhanced IFN-γ production” with bovine PBMCs [2] (listed as poly(dA:dT)). In addition, the “IFN-γ secretion by ConA stimulated bovine PBMCs” value is “promotes type 1 interferon dependent enhancement of interferon gamma production in PBMCs” in the assay on bovine PBMCs [2]; “promotes type 1 interferon dependent enhancement of interferon gamma production in PBMCs” in the assay on bovine PBMCs [2] (listed as Poly (deoxyadenylic-thymidylic) acid); “strongly enhanced IFN-γ production by PBMCs from adult (8 months old) animals” in the assay with bovine PBMCs [2] (listed as poly (dA:dT)); “increase in IFN-γ secretion; also recorded: increased capacity to secrete IFN-γ in response to polydA:dT, although the difference was only significant when cells were primed with LPS” in the assay with bovine PBMCs [2] (listed as polydA:dT). The “IFN-γ secretion by PBMCs from neonatal calves, time course” value with bovine PBMCs [2] (listed as PolydA:dT) is “drives enhanced IFN-γ by cells from neonatal calves”; with bovine PBMCs [2] (listed as polydA:dT), “overcomes the deficiency in interferon gamma production in neonatal cattle; also recorded: significantly enhanced in response to polydA:dT; also recorded: most evident in the first 2 months of life after which the enhancement was not statistically significant; also recorded: significant increase in IFN-γ secretion at 1 and 2 months in the presence or absence of LPS; also recorded: ability to drive enhanced IFN-γ from PBMCs of calves aged 1-2 months”. Besides, in the assay on bovine PBMCs [3], the “IL-1β secretion by bovine cells (priming not given)” value was “enhanced by polydA:dT; also recorded: enhanced IL-1β secretion from bovine cells; also recorded: enhances IL-1β secretion in a NLRP3 independent manner; also recorded: robust driver of IL-1β secretion and IL-18 expression in cattle”. Also, the “IL-1β secretion by PBMCs from 1 month old calves following LPS priming” value with bovine PBMCs [3] (5 neonatal calves, 24 hours) was “PBMCs from all 5 neonates secreted IL-1β”. In addition, in the assay with bovine PBMCs [3] (5 neonatal calves, 24 hours), the “IL-1β secretion by PBMCs from neonatal (1 month old) calves in the absence of LPS priming” value is “can secrete IL-1β in response to polydA:dT without LPS priming; also recorded: secreted processed IL-1β following polydA:dT stimulation”. For the same substance, the “IL-1β secretion by bovine PBMCs primed with LPS” value with bovine PBMCs [3] (LPS 100 pg/ml, polydA:dT 5, 2 or 1 μg/ml, 24 hours) was “secreted IL-1β when stimulated with polydA:dT at various concentrations”. Moreover, in the assay with bovine PBMCs [3] (absence or presence of LPS, 24 hours), the “IL-1β secretion by PBMCs from calves at 2 months of age” value was “processed IL-1β was present in supernatants”. Moreover, in the assay with bovine PBMCs [3] (bovine PBMCs, 24 hours), the “IL-1β concentrations, presence versus absence of LPS” value is listed as “no significant difference in IL-1β concentrations”. Moreover, the “IL-1β secretion by bovine PBMCs in the absence of LPS priming” value is on record as “capable of driving IL-1β secretion in the absence of priming with LPS” with bovine PBMCs [3] (24 hours, listed as PolydA:dT) and “all calves secreted processed IL-1β” in the assay with bovine PBMCs [3] (24 hours, listed as polydA:dT).
